Test results published in article PMC6433232, “Targeting mitochondria in cancer therapy could provide a basis for the selective anti-cancer activity” (PLoS ONE, 2019).
“And” between values parts separate entries of the source, which are not always exact repeats. Equal entries are not always repeated. Where two headings read alike, the source gives them in different places.

Test system: primary acute myeloid leukemia (AML) cells obtained from patients
Test: Kinase inhibitor library screening with and without NSC130362, primary AML cells
Format: cell-based, Human
[1] = ratio of EC50 for inhibitor to EC50 for inhibitor/NSC130362 combination, NSC130362 10 μM, Screen N 1
[2] = ratio of EC50 for inhibitor to EC50 for inhibitor/NSC130362 combination, NSC130362 10 μM, Screen N 2
[3] = ratio of EC50 for inhibitor to EC50 for inhibitor/NSC130362 combination, NSC130362 10 μM

SMILES | EC50 decrease, fold (Screen N 1) | EC50 decrease, fold (Screen N 2) [fold] | EC50 decrease, fold (Screen N 1) [1] [fold] | EC50 decrease, fold (Screen N 2) [2] [fold] | EC50 decrease, fold (Screen N 3) [3] [fold]
C[C@@H](Oc1cc(-c2cnn(C3CCNCC3)c2)cnc1N)c1c(Cl)ccc(F)c1Cl [Crizotinib (PF-2341066)] | 11.4 fold and 6.3 fold | 1.0 |  |  | 
Nc1ccn([C@@H]2O[C@H](CO)[C@@H](O)[C@@H]2O)c(=O)n1 [Cytarabine] |  |  | 28.6 | 1.0 | 0.132
C[C@H](NC(=O)Cc1cc(F)cc(F)c1)C(=O)N[C@@H]1C(=O)N(C)c2ccccc2-c2ccccc21 [DBZ] |  |  | 0.951 | 1.0 | 0.374
Cc1nc(Nc2ncc(C(=O)Nc3c(C)cccc3Cl)s2)cc(N2CCN(CCO)CC2)n1 [Dasatinib] |  |  |  | 1.0 | 
Cc1ccc(-n2nc(C(C)(C)C)cc2NC(=O)Nc2ccc(OCCN3CCOCC3)c3ccccc23)cc1 [Doramapimod (BIRB 796)] |  |  | 0.15 | 1.0 | 511.2
CN1CCN(c2ccc3nc(-c4c(N)c5c(F)cccc5[nH]c4=O)[nH]c3c2)CC1 [Dovitinib (CHIR-258)] |  |  | 2.6 | 1.0 | 96.7
CN(NC(=O)CC(=O)NN(C)C(=S)c1ccccc1)C(=S)c1ccccc1 [Elesclomol] |  |  | 1.1 | 302.2 | 1.1
c1cn2cc(-c3ccc4cn[nH]c4c3)nc(Nc3ccc(N4CCOCC4)cc3)c2n1 [Entospletinib (GS-9973)] |  |  | 16.8 | 1.0 | 0.131
C#Cc1cccc(Nc2ncnc3cc(OCCOC)c(OCCOC)cc23)c1 [Erlotinib] |  |  |  | 1.0 | 
CN1CC[C@H](c2c(O)cc(O)c3c(=O)cc(-c4ccccc4Cl)oc23)[C@H](O)C1 [Flavopiridol] |  |  | 2.0 | 1.1 | 0.0683
COc1cc2c(Oc3ccc(NC(=O)C4(C(=O)Nc5ccc(F)cc5)CC4)cc3F)ccnc2cc1OCCCN1CCOCC1 [Foretinib (XL880)] |  |  | 0.666 | 1.0 | 2.2
N[C@@H]1CCCN(c2c(Br)cnc3[nH]cc(NC(=O)C4CC4)c23)C1 [GDC-0575] |  |  |  | 1.0 | 
OCCn1cc(-c2ccc3c(c2)CC/C3=N\O)c(-c2ccncc2)n1 [GDC-0879] |  |  | 0.9 | 1.0 | 952.6
Cn1nccc1Nc1nccc(-c2ccn([C@H](CO)c3ccc(Cl)c(F)c3)c(=O)c2)n1 [GDC-0994] |  |  |  | 1.0 | 
CC[C@H](Nc1ncnc2[nH]cnc12)c1nc2cccc(F)c2c(=O)n1-c1ccccc1 [GS-1101 (CAL-101)] |  |  | 506.3 | 1.0 | 356.4
CCn1c(-c2nonc2N)nc2c(C#CC(C)(C)O)ncc(OC[C@H]3CCCNC3)c21 [GSK690693] |  |  | 0.165 | 1.0 | 1.1
